Key:
Assay type in all cases: in vivo, rat
[1] = test system: male SD rats; test: Elevated plus maze, transfer latency, scopolamine-induced amnesia; settings: scopolamine 0.6 mg/kg i.p., Ashwagandha extract 100 mg/kg, Piracetam 200 mg/kg, 10 days, Mean ± SEM (n = 6)
Experimental: (§1) Twenty-four male SD rats were divided into four groups comprising of 6 rats in each group. The animals were treated as per the following details: • Group 1: Normal control (0.5% Polysorbate 80; 10 ml/kg) • Group 2: Untreated control (Scopolamine; 0.6 mg/kg i.p.) • Group 3: Piracetam—200 mg/kg+Scopolamine 0.6 mg/kg i.p. • Group 4: Ashwagandha extract (Sample 4)—100 mg/kg+Scopolamine 0.6 mg/kg i.p.
(§2) The vehicle/extract/standard was administered daily for 10 consecutive days. Habituation to swimming was conducted on day 6 of the experiment. Scopolamine was injected 30 minutes after the vehicle/extract/standard to the designated groups. The following behavioural test was conducted at the end of the treatment by using Elevated plus maze apparatus, Y maze model and Cooks pole climbing method.
The elevated plus-maze consists of two open arms and two closed arms (50×10×40 cm each) were elevated to a height of 50 cm. The rats were placed individually at the end of an open arm facing away from the central platform, and the time taken by them to move from there to either of the close arm transfer latency was recorded. […] The rats were allowed to explore the maze for another 10 seconds and then return to the home cage. […] On the 10th day Standard and test substances were administered orally 30 mins before scopolamine injection transfer latency was recorded.

[2] = test system: male SD rats; test: Cooks pole climbing test, conditioned avoidance, scopolamine-induced amnesia; settings: scopolamine 0.6 mg/kg i.p., Ashwagandha extract 100 mg/kg, Piracetam 200 mg/kg, Mean ± SEM (n = 6)
Experimental: as §1, §2
Pole climbing test: Rats were trained in such a way that the animal had to climb the pole (shock free zone) within 30 s to avoid a shock. The shock was preceded by a buzzer that lasted for 15 s. The animals were trained to climb the pole at the sound of the buzzer (conditioned avoidance response). At particular intervals, 20 trials were given for each animal and average of the shock avoidance and mistakes were recorded. Trained animals were assayed by conditioned avoidance responses.

[3] = test system: male SD rats; test: Y-Maze model, scopolamine-induced amnesia; settings: scopolamine 0.6 mg/kg i.p., Ashwagandha extract 100 mg/kg, Piracetam 200 mg/kg, Mean ± SEM (n = 6)
Experimental: as §1, §2
Y-Maze model—The treatment was started (as per the groups mentioned) for animals from the day 1 and continues up to day 8. […] Briefly, each time animals were placed just inside arm B facing away from the center and allowed to move through apparatus for 8 min, while being monitored by tracking system. […] Each arm entry (defined as all four paws entering arm) was scored and recorded. Animals were returned to home cage and numbers of fecal pellets were counted in the Y maze and data was recorded. […]

[4] = test system: male SD rats; test: Morris Water Maze (MWM), scopolamine-induced amnesia; settings: scopolamine 0.6 mg/kg i.p., Ashwagandha extract 100 mg/kg, Piracetam 200 mg/kg, mean
Experimental: as §1, §2
The MWM consists of a circular pool (180 cm in diameter and 60 cm in height) with a featureless inner surface. The circular pool was filled with water (23±1° C.) up to a height of 40 cm. The pool was divided into four quadrants of equal area. The escape platform was centered in one of the four quadrants. The day before the training experiments (day 6), animals were habituated to swim training for 60 s in the absence of the platform. The animals were treated with vehicle/extract/standard drug for 6 days. On day 7, 30 min after the administration of vehicle/extract/standard drug, scopolamine (0.6 mg/kg, i.p.) was injected. Training session was started 30 min after scopolamine administration. The rats were given four trial sessions each day for four consecutive days (day 7-10), with an inter-trial interval of 15 min, and the escape latencies were recorded. Once the rat located the platform, it was permitted to remain on it for 15 s to observe the vital clues. […] On day 11, the probe test was performed by removing the platform from the pool and a cut-off time of 60 s was kept for exploring. The time spent by the animal in the target quadrant was recorded. The higher value of the time spent in quadrant indicate better retention ability as the animal remembered the position of the platform.

NC(=O)CN1CCCC1=O [Piracetam]
Transfer Latency [1]: 7.00 ± 0.89 s
Avoidance/Escape latency [2]: 6.00 ± 0.89 s
Number of Arm entries [3]: 5.00 ± 0.89
Retention Latency [3]: 2.07 ± 0.46 min
Time to reach escape platform on training days ([4]; MWM Day 7): 74.25 s
Time to reach escape platform on training days ([4]; MWM Day 8): 47.33 s
Time to reach escape platform on training days ([4]; MWM Day 9): 9.83 s
Time to reach escape platform on training days ([4]; MWM Day 10): 5.25 s
